Laboratory results as given in patent publication US20090117089A1, “GLYCOLIPIDS AND ANALOGUES THEREOF AS ANTIGENS FOR NK T CELLS” (The Rockefeller University, priority 2005, published 2009).
“Also recorded” adds a separate entry of the source.

Experiments:
[1] = tested on: DCs from bone marrow progenitors; test: Direct DC maturation from bone marrow progenitors in culture; format: cell-based; conditions: data not shown
[2] = tested on: human NKT cells (Vα24/Vβ11); test: Human dendritic cell mediated NKT cell expansion; format: cell-based; design: NKT cell expansion (Table 1): unit not given here
Description: Human dendritic cell mediated NKT cell expansion. CD14+ monocytes were isolated from PBMC using anti-CD14 magnetic microbeads and cultured in the presence of GM-CSF and IL-4 to generate DCs, followed at day 5-6, by maturation in an inflammatory cytokine cocktail as described herein. To stimulate NKT cells, DCs were pulsed with α-GalCer and the tested analogs, and cultured with CD14− cells at a DC: responder ratio of 1:10. NKT cell expansion was monitored by flow cytometry based on the expression of the invariant NKT cell receptor (Vα24/Vβ11).

[3] = tested on: allogeneic C57B1/6 or syngeneic T cells; test: Stimulation of the mixed leukocyte reaction (MLR) by DCs; format: cell-based, mouse
Protocol: Stimulation of the mixed leukocyte reaction (MLR) by DCs. Spleen DCs were isolated using anti-CD11c magnetic beads 8 h after administration of αGalCer, 24, or PBS. Graded numbers of spleen DCs from BALB/C mice were irradiated and cultured with 2×10^5 allogeneic C57B1/6 or syngeneic T cells, isolated using anti-CD4 coated magnetic beads (Miltenyi Biotech), in a 96-well flat-bottom plate for 88 h. During the final 16 h, ^3H-thymidine (1 μCi/well) was added.

J558 tumor cells = test: Tumor protection assay, J558 plasmacytoma; format: in vivo, mouse
Protocol: (§1) 2×10^7 irradiated J558-Ld^− cells, were injected i.v. or s.c. into Balb/c mice with or without α-Gal Cer as a DC maturation stimulus. In some experiments we compared α-Gal Cer to agonistic anti-CD40 mAb (1C10, 25 μg i.p.) or the toll like receptor ligands, poly IC ([…], Invivogen) or lipopolysaccharide (20 μgm, Sigma). The mice had been given CFSE-labeled PICTL CD8^+ T cells i.v. 1 d earlier, or were naive animals. In some experiments, mice were sacrificed 3 d later, and T cell division and activation in spleen were analyzed by flow cytometry. Additionally, 7 d or 2 months later, 5×10^6 live J558 tumor cells were inoculated subcutaneously. 5×10^6 Meth A fibrosarcoma was used as a control tumor for challenge. Tumor cell growth was measured with calipers every other day. Mice were scored positive for tumor as soon as tumors became palpable and grew progressively. Mice were euthanized when tumor size exceeded 400 mm^2.
Mice vaccinated with J558 and α-Gal Cer were injected with ascites containing 1 mg of rat monoclonal anti-CD4 (clone GK 1.5) or anti-CD8 (clone 53-6.72). The mice received three daily injections, the first one i.v. one day before the challenge, and two i.p. injections on the day of the challenge and one day after the challenge. Control mice received 1 mg of Rat IgG (Jackson Laboratories). The depletion was monitored by staining with anti-CD4 and anti-CD8 antibodies followed by flow cytometry (BD PharMingen).
In vivo delivery of dying tumor cells, DC maturation stimuli, and tumor protection assay. Different doses of irradiated J558-Ld− cells were injected i.v. into naïve BALB/c mice either alone or with αGalCer (2 or 0.2 μg/mouse) or 24 (2 or 0.2 μg/mouse) as a DC maturation stimulus. We also compared the glycolipids to agonistic anti-CD40 mAb (1C10, 25 μg, i.p.) or the Toll-like receptor ligands, poly IC (50 μg i.p., Invivogen). 14 d later, 5×10^6 live J558 tumor cells were inoculated s.c. Tumor cell growth was measured with calipers every other day. Mice were scored positive for tumor, as soon as tumors became palpable and grew progressively. Mice were euthanized when tumor size exceeded 400 mm^2.

[4] = tested on: serum IFN-γ, IL-12p70 and other cytokines; test: Serum cytokines (Luminex); format: in vivo, mouse
Protocol: Serum cytokines. […] 25 μl of sample was preincubated with serum diluent and incubated for 2 h with Beadmates coated with anti-cytokine mAbs. The fluid was then aspirated and the wells incubated for 1.5 h with biotin-conjugated anti-cytokine mAbs followed by 30 min incubation with Beadlyte streptavidin-PE secondary antibody. Samples were acquired in duplicate by Luminex and analyzed using Beadview software (Upstate).

spleen CD11c+ DCs = test: DC maturation in vivo (surface markers, flow cytometry); design: species or system mouse
Protocol: as §1
T-cell division, phagocytosis of CFSE-labeled tumor cells and acquisition of cell surface-activation markers were determined by flow cytometry. Briefly, spleens were harvested and low-density splenocytes were stained with CD11c-APC and CD8α-PE, CD11b-PE, B220-PE or CD4-PE for the up-take examination. For in vivo proliferation of P1CTL T-cells, spleens were harvested and the splenocytes suspension was staining with CD8α-Cy, Vα8α-PE, CD25-PE, CD62L-PE. For intracellular cytokine staining, splenocytes were stimulated in vitro with 1 µg/ml P1A peptide in 5 μg/ml brefeldin A (Sigma-Aldrich) at 37° C. for 4 hrs. The cells were first stained with CD8α-Cy-Chrome™, fixed and permeabilized with cytofix-cytoperm buffer (BD Biosciences), and stained with PE conjugated mAbs to IL-2 or IFN-γ.
Flow cytometry. Acquisition of cell surface-activation markers was determined by flow cytometry. […] Spleen CD11c+ DCs were isolated using anti-CD11c magnetic beads and stained with CD11c-FITC, CD8α− allophycocyanin, and PE-Conjugated I-Ad, CD40, CD80, CD86, CD119, B7-H1 and B7-DC. We used a FACSCalibur™ with data analysis in FlowJo (Tree Star).

Substance: 3-O-sulfo-alpha-galactosylceramide [Compound 24]
- direct stimulation of DC maturation [1]: unable to directly stimulate DC maturation from bone marrow progenitors in culture
- NKT cell expansion by loaded human DCs ([2]; DC to responder ratio 1:10): efficiently expanded human NKT cells; also recorded: comparable or higher than expansion mediated by DCs loaded with αGalCer
- NKT cell expansion (Table 1) ([2]; Donor 1): 3.19
- NKT cell expansion (Table 1) ([2]; Donor 2): 5.95
- NKT cell expansion (Table 1) ([2]; Donor 3): 1.51
- NKT cell expansion (Table 1) ([2]; Donor 4): 4.95
- stimulation of allogeneic T cells (allo-MLR) by DCs from treated mice [3]: equally potent stimulators of the allo-MLR
- stimulation of syngeneic T cells (syn-MLR) by DCs from treated mice [3]: no stimulatory activity in the syn-MLR
- protection from J558 tumor challenge (J558 tumor cells; 0.2 μg/mouse with 1×10^7 irradiated J558Ld− tumor cells i.v., challenge 14 days later): 100%
- protection from J558 tumor challenge (J558 tumor cells; 2 μg/mouse with 1×10^7 irradiated J558Ld− tumor cells i.v., challenge 14 days later): 100%
- mice protected by direct vaccination (J558 tumor cells; dying tumor cells with compound 24): 80-100%
- tumor growth after single agent alone (J558 tumor cells; glycolipid alone (2 or 0.2 μg/mouse) or irradiated cells alone, challenge 14 days later): grew progressively within 7-10 days
- maturation stimulus compared with ligation of CD40, TLR4 and TLR3 (J558 tumor cells; irradiated tumor cells i.v.): superior relative to other DC stimuli
- protective immunity to irradiated tumor injected i.v. (adjuvant comparison) (J558 tumor cells; vs αCD40 and poly IC): only adjuvant that could independently induce protective immunity
- serum IL-12p70 ([4]; 0.02 μg, 15 h): ~900 pg/mL
- serum IFNγ ([4]; 0.02 μg, 15 hours): ~1200 pg/mL
- serum IFN-γ, IL-12p70, IL-4, TNF-α and IL-2 response ([4]; 2 μg i.v., 2, 6, 12 and 24 h): significantly higher at all time points examined
- serum IL-12p70 ([4]; 2 μg i.v., by 6 h): ~1000 pg/mL
- serum IFN-γ ([4]; 2 μg i.v., by 12 h): ~3000 pg/mL
- serum IL-12p70 ([4]; 2 μg i.v., by 12 h): ~900 pg/mL
- serum IFN-γ and IL-12p70, 24 vs. αGalCer ([4]; all doses tested, 15 hours after i.v. injection): at least 2.5 fold
- serum IFN-γ and IL12p70 release in Jα281−/− mice ([4]; i.v. injection): lacked the ability to release IFN-γ and IL12p70 into the serum
- dose dependence of DC maturation (spleen CD11c+ DCs; 2, 0.2, 0.02 and 0.002 μg/mouse): correlated with the dose of glycolipid administered
- DC maturation response compared with αCD40 mAb and polyIC (spleen CD11c+ DCs; 15 h following i.v. administration): paralleled and exceeded those seen with other known stimuli for DC maturation in vivo
- surface markers on CD11c+CD8− DCs (spleen CD11c+ DCs; 15 hours after i.v. glycolipid): induced strong upregulation of CD86, B7-H1 and B7-DC but only slightly upregulated MHC II, CD40 and CD80
- upregulation of activation markers on CD11c+CD8+ DCs (spleen CD11c+ DCs; 15 hours after i.v. glycolipid, 2 or 0.2 μg per mouse): comparable to αGalCer
- DC maturation in Jα281−/− mice (spleen CD11c+ DCs; mice lacking NKT cells): did not mature
- phenotypic changes of DC maturation (CD40, CD86, MHC class II, B7-H1, B7-DC up, CD119 down) (spleen CD11c+ DCs; mouse, in vivo): induced similar phenotypic changes of maturation
- induction of splenic DC maturation in vivo (spleen CD11c+ DCs; surface activation markers): rapid and efficient inducers of splenic DC maturation in vivo
